Measured values: paper PMC3435281 (PLoS ONE, 2012)
Entries after “also recorded” stand apart in the source; their conditions may differ.

Key:
human ARNT = test: DRE-luciferase in ARNT-deficient C4 cells transfected with ARNT; assay type: cell-based; conditions: ARNT or empty vector, 3 µM, 18 h
C57BL/6J mice (AHR^b) = test: In vivo hepatic microsomal EROD activity, C57BL/6J; parameters: species or system mouse; conditions: oral 30, 80 or 120 mg/kg, 48 hours
Description: (§1) We utilized the wild type rat hepatoma cell line, 5L, which harbors the high affinity AHR isoform, and our newly created AHR^d-15 cell line. […] Groups of control mice were given corn oil alone or BNF at the concentration of 120 mg/kg.
(§2) Figure 3 In Vitro dose response curves. A. Rat hepatoma cell lines bearing the murine AHR^d (AHR^d-15) or the rat AHR^b (5L) were incubated with increasing doses of TCDD in 96-well plates. After 40 hours, EROD activity was performed from whole cell lysate. (n = 3). […] (n = 3). C. Same assay as in A, with increasing doses of BNF. (n = 2). […] Following 48 hours, hepatic microsomal proteins were isolated and used for the assessment of EROD activity. Animals were treated in groups of 4. Error bars: S.D.
(§3) Hepatic microsomes were prepared by homogenizing 0.5 g of liver tissue in 5 mL of MENG buffer (25 mM buffer sodium morpholinopropane sulfonate buffer (pH 7.5) containing 0.025% (w/v) NaN3, 1 mM EGTA and 10% (v/v) glycerol). The homogenate was subjected to centrifugation at 10,000×g for 20 minutes, followed by centrifugation of the supernatant for 1 hour at 100,000×g and 4°C. The pellet was dissolved in 15 mM Tris-HCl buffer containing 250 mM sucrose (pH 8.0) and aliquots were stored at −80°C. Protein concentration was determined using the Bicinchoninic Acid Protein Assay Reagent (Pierce Biotechnology, Rockford, IL). […]

DBA/2J mice (AHR^d) = test: In vivo hepatic microsomal EROD activity, DBA/2J; parameters: species or system mouse; conditions: oral 30, 80 or 120 mg/kg, 48 hours
Description: as §1, §2, §3

[1] = test system: human 101L-hepatoma cells; test: Duration of DRE-luciferase activation; assay type: cell-based; conditions: for luciferase activity: 100 nM
[2] = test system: naïve T-cells with allogeneic BALB/C pDCs; test: pDC/T cell coculture, qPCR of IDO and FoxP3; assay type: cell-based, mouse; conditions: 5 days, SU5416 500 nM, TCDD 10 nM
Description: An important role for the AHR in the immune system, and specifically T-cell differentiation, has been recognized and continues to be characterized in the literature, [7]. Some ligands of the AHR have the ability to enhance Treg differentiation from naïve T-cells (TCDD, kynurenine), while others direct differentiation towards Th17 effector cells (FICZ). […] IDO has long been known to play a role in Treg generation, and may be central to the mechanism of Dendritic Cell (DC)-directed Treg generation. […] As described in the Methods, naïve T-cells were sorted using magnetic bead separation, and placed in culture for 5 days with allogeneic pDCs separated from BALB/C mice. […] After 5 days, cells were collected and mRNA harvested for qPCR analysis of IDO and FoxP3. […] Naïve T cells were placed in culture with IL-6 and TGF-β, and harvested after 3 days of culture.
A. Spleens were harvested from mice and processed in the standard fashion. […] Same assay as A, but mRNA for CYP1B1 and IDO were measured. C.
Naive CD4^+CD25^− T cells were isolated from WT and AHR-null mice and cocultured with BALB/cJ pDCs isolated using the Miltenyi Mouse pDC Isolation Kit (Miltenyi Biotec) at a ratio of 20∶1 or 10∶1 as previously described (13). […] On day 5, cells were harvested and subjected to qPCR analysis.

[3] = test system: CYP1A1 (induction through AHR^b); test: CYP1A1 qPCR in wild-type splenocytes; conditions: C57BL/6J, mouse
Description: (§4) As the above in vitro experiments were performed in cell lines, we next utilized AHR^b (C57BL/6J) and AHR^d congenic mice (on a C57BL/6J background). […] Normalized data was chosen to allow comparison of CYP1A1 upregulation to its maximum in AHR^b versus AHR^d mice.
(§5) Figure 4 Splenocytes from wild-type and AHR^d mice analyzed by qPCR for CYP1A1. […] After 4 hours they were analyzed by qPCR for CYP1A1 analysis. The curves are normalized from 0 to 100% response. […] Cos-1 cells were transfected with an AHR containing the same point mutation (valine for alanine) thought to be responsible for the low affinity of the AHR^d isoform compared to AHR^b, and compared to the wild-type AHR response. These cells also harbor a luciferase gene next to the DRE. C. Cos-1 cells were exposed to TCDD. […]
(§6) Spleen was harvested from mice at the time of euthanasia and single cell suspensions were made. […] The relative quantitation PCR for IDO1 (Mm00492586-m1) and GAPDH (4352339-E0806018) were performed in the Applied Biosystems 7900HT Fast Real-Time PCR System (Applied Biosystems), and TaqMan Universal PCR Master Mix (Applied Biosystems) was used as a reaction reagent. The relative quantitation PCR for Foxp3, CYP1A1, CYP1B1, and GAPDH were processed by the Bio-Rad iCycler (Bio-Rad) and iQ SYBR Green Supermix ([…]) was used as the reaction reagent.

[4] = test system: CYP1A1 (induction through AHR^d); test: CYP1A1 qPCR in AHR^d splenocytes; conditions: AHR^d congenic on a C57BL/6J background, mouse
Description: as §4, §5, §6

AHR A375V (AHR^d type) = AHR A375V (AHR^d type) (Mus musculus, UniProt P30561, A375V); test: DRE-luciferase in COS-1 cells transfected with mAHR-A375V
Description: Figure 4 Splenocytes from wild-type and AHR^d mice analyzed by qPCR for CYP1A1. […] After 4 hours they were analyzed by qPCR for CYP1A1 analysis. The curves are normalized from 0 to 100% response. […] Cos-1 cells were transfected with an AHR containing the same point mutation (valine for alanine) thought to be responsible for the low affinity of the AHR^d isoform compared to AHR^b, and compared to the wild-type AHR response. These cells also harbor a luciferase gene next to the DRE. C. Cos-1 cells were exposed to TCDD. […] The graphs represent normalized data from 0 response to 100% response. They are representative of 2 independent experiments.
These cells also harbor a luciferase gene next to the DRE. […] The data in this figure is normalized from 0 to 100% response.
After 4 hours of treatment, cells were assayed with dual luciferase® reporter assay system (Promega, Madison, WI). The expressed luciferase activity was measured by MicroLumat Plus luminometer (Berthold Technologies, Hartfordshire, UK).

AHR^d = test system: AHR^d; parameters: method as in PMID 16242735; conditions: cited from earlier work

Row | Structure (SMILES) | DRE-luciferase activity (human ARNT) | hepatic EROD activity (C57BL/6J mice (AHR^b)) | hepatic EROD activity (DBA/2J mice (AHR^d)) | luciferase activity as percent of TCDD response (1 nM) [1] [%] | luciferase activity ([1]; 4 hours) | luciferase activity ([1]; 24 hours) | FoxP3 mRNA [2] | IDO mRNA [2] | duration of DRE-binding ([1]; 1 nM, 4 to 96 hours) | EC50 at 4 h [3] [nM] | EC50 at 4 h [4] [nM] | EC50 (AHR A375V (AHR^d type)) [nM] | binding affinity of AHR^d relative to AHR^b (AHR^d)
1 | Cc1cc(C)c(C=C2C(=O)Nc3ccccc32)[nH]1 [SU5416, 3-(3,5-dimethyl-1H-pyrrol-2-ylmethylene)-1,3-dihydro-indole-2-one] | activity was only seen when ARNT was transfected | dose-dependent increase | dose-dependent increase | ≤ 20 | has activity | no longer causes luciferase activity | generated; also recorded: to a greater extent than TCDD | generated; also recorded: to a greater extent than TCDD | – | – | – | – | –
2 | Clc1cc2c(cc1Cl)Oc1cc(Cl)c(Cl)cc1O2 [TCDD, 2,3,7,8-tetrachlorodibenzo-p-dioxin] | – | – | – | – | – | – | upregulation was also seen | upregulation was also seen | long duration DRE-binding | 0.461 | 1.89 | 2.47 | one-fifteenth to one-twentieth
